Data taken from PubChem BioAssay AID2060500 (Molecular Pharmacology Branch, DTP, NCI, 2025).
“And” between values parts separate entries of the source, which are not always exact repeats. Equal entries are not always repeated.

System: 596521-263-R-J1-PDC complex spheroids, viability % of control
Assay: Anticancer human tumor 596521-263-R-J1-PDC patient-derived soft tissue sarcoma cell line growth inhibition [GQUAD]
Conditions: for viability, T/C: stronger effect = lower value
Excerpt: DNA G-quadruplex Stabilizer Agents in Combinations in Complex Spheroids
A high-throughput screen of multi-cell type tumor spheroids was designed to identify active combinations of DNA G-quadruplex stabilizer agents and targeted small molecules. Complex spheroids include a stromal component modeled by human endothelial cells (HUVEC) and fibroblasts modeled by human mesenchymal stem cells (MSCs). The concentration ranges selected for each drug and investigational agent were based upon clinically achievable concentrations if the clinical Cmax of the agent was known.
Compounds. The drugs and investigational agents: pidnarulex (CX-5461; NSC782164), APTO-253 (NSC789042), BRACO-19 (NSC847499), peposertib (NSC802822), ceralasertib (NSC780249), elimusertib (NSC800525), camonsertib (NSC841442), AZD-1390 (NSC803789), olaparib (NSC753686), talazoparib (NSC767125), ART-558 (NSC835418), sotorasib (NSC818433), MRTX-1133 (NSC836407), SN-38 (NSC673596), topotecan (NSC609699), etoposide (NSC141540), doxorubicin (NSC123127), gemcitabine (NSC613327), 5-fluorouracil (NSC19893), paclitaxel (NSC125973), vemurafenib (NSC761431), panobinostat (NSC761190), R-306465 (JNJ-16241199; NSC773264), adavosertib (NSC754352), TP-3654 (NSC805149), carboplatin (NSC241240), KSQ-4279 (NSC840948), and staurosporine (NSC755774) were obtained from the National Cancer Institute (NCI) Developmental Therapeutics Program Chemical Repository (34). The FDA-approved anticancer drug set is available from the NCI Developmental Therapeutics Program. […] The stock solutions were prepared in dimethyl sulfoxide (DMSO, Sigma-Aldrich, St. Louis, MO, cat. D2650) at 800-fold the tested concentration and stored at -70 degrees C prior to their use. All drugs and investigational agents were tested over a range starting from a high concentration at or near the clinical Cmax and decreasing in half-log increments. If the clinical Cmax for an agent had not been determined, the highest concentration tested was 10 microM.
2.3 Cell Culture. All cells were maintained in an incubator at 37 degrees C and 5% CO2 with 95% humidity. The PDC lines were cultured according to standard operating procedures established by the NCI PDMR. All PDCs were thawed and cultured in Matrigel-coated flasks prepared with a working solution of 1X Ham's F-12 nutrient mix, without supplementation (Invitrogen, cat. 11765054), 100 U/mL penicillin-streptomycin (Invitrogen, cat. 15140122), and 2.5% Matrigel (Corning Inc., cat. 354248) for the first three passages. The 857933-349-R-J2-PDC line was cultured in 6C/Colon 1B media, which includes advanced DMEM/F-12 (Thermo Fisher Scientific, cat. 12634028), 10 mM HEPES (Thermo Fisher Scientific, cat. 15630080), 1X GlutaMAX supplement (Thermo Fisher Scientific, cat. 35050061), 0.1 mg/mL primocin (InvivoGen, cat. ant-pm-2), 10% defined fetal bovine serum, heat inactivated (HyClone Laboratories Inc., cat. SH30070.03HI), 50% L-WRN conditioned media (ATCC, cat. CRL-3276), 1.25 mM N-Acetyl-L-cysteine (Sigma-Aldrich, cat. A9165), 10 mM nicotinamide (Sigma-Aldrich, cat. N0636), 1X B-27 supplement (Thermo Fisher Scientific, cat. 17504044), 1X N-2 supplement (Thermo Fisher Scientific, cat. 17502048), 10 microM Y-27632 dihydrochloride (Tocris Bioscience, cat. 1254), and 50 ng/mL human EGF recombinant protein (Thermo Fisher Scientific, cat. PHG0311). The 485176-168-R4-J1-PDC line was cultured in Panc media, which includes all 6C/Colon 1B media components plus 100 ng/mL human FGF-10 (Thermo Fisher Scientific, cat. 100-26), 500 nM SB-431542 (Selleckchem, cat. S1067), and gastrin (Tocris, cat. 3006).
[…]
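Also: spheroids exposed to drugs for 7 days before viability reading.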

Row | IC50 (curve of compound) | IC50 (compound alone, run of 04/22/2024) | Compound | viability, T/C (compound 0.0316 µM) | viability, T/C (compound 0.1 µM) | viability, T/C (compound 0.316 µM) | viability, T/C (compound 1 µM) | viability, T/C (compound 3.16 µM) | viability, T/C (compound 10 µM) | viability, T/C (compound 0.000999 µM) | viability, T/C (compound 0.00316 µM) | viability, T/C (compound 0.00999 µM) | viability, T/C (compound 0.0999 µM)
1 | > 10000 nM |  | C=CC(=O)N1CCN(c2nc(=O)n(-c3c(C)ccnc3C(C)C)c3nc(-c4c(O)cccc4F)c(F)cc23)C(C)C1 (stereo unspecified) | 107% and 105% and 114% | 92.7% and 91.9% and 95.5% | 96.9% and 101% and 108% | 114% and 120% and 118% | 96.2% and 97% and 113% | 73.2% and 66.5% and 84.6% |  |  |  | 
2 | > 10000 nM |  | CC(C)n1c(=O)n(C)c2cnc3cc(F)c(-c4ccc(OCCCN5CCCCC5)nc4)cc3c21 | 95.5% and 105% and 103% | 92.9% and 102% and 101% | 82.4% and 94.7% and 101% | 91.1% and 106% and 92% | 81.2% and 87.7% and 86.1% | 61.1% and 71.2% and 64.3% |  |  |  | 
3 | 452 nM and 275 nM and 412 nM |  | CC1COCCN1c1cc(-c2ccnn2C)c2ccnc(-c3ccn[nH]3)c2n1 (stereo unspecified) | 78.3% and 73.2% and 70.2% | 59.2% and 55.7% and 62.7% | 57.2% and 47.1% and 50.2% | 43.9% and 42.6% and 44.5% | 30.3% and 34% and 31.6% | 24.4% (2×) and 23.9% |  |  |  | 
4 | > 10000 nM and 7960 nM |  | CC1COCCN1c1cc(C2(S(C)(=N)=O)CC2)nc(-c2ccnc3[nH]ccc23)n1 (stereo unspecified) | 95.1% and 98% and 118% | 110% and 95.7% and 101% | 84.8% and 84.3% and 101% | 83.6% and 72.9% and 77.3% | 73.7% and 63.8% and 58% | 52.1% and 46.3% and 51.5% |  |  |  | 

Second part, the compound before the results:

Row | Compound | IC50 (curve of compound) | IC50 (compound alone, run of 04/22/2024) | viability, T/C (compound 0.0316 µM) | viability, T/C (compound 0.1 µM) | viability, T/C (compound 0.316 µM) | viability, T/C (compound 1 µM) | viability, T/C (compound 3.16 µM) | viability, T/C (compound 10 µM) | viability, T/C (compound 0.000999 µM) | viability, T/C (compound 0.00316 µM) | viability, T/C (compound 0.00999 µM) | viability, T/C (compound 0.0999 µM)
5 | C#Cc1c(F)ccc2cc(O)cc(-c3ncc4c(N5CC6CCC(C5)N6)nc(OCC56CCCN5CC(F)C6)nc4c3F)c12 (stereo unspecified) | > 10000 nM and 1560 nM |  | 87.5% and 92.6% and 98.3% | 94.6% and 94.2% and 103% | 92.4% and 101% and 107% | 89.7% and 67.3% and 92.5% | 124% and 22.8% and 104% | 75% and 22.5% and 78.4% |  |  |  | 
6 | C=CCn1c(=O)c2cnc(Nc3ccc(N4CCN(C)CC4)cc3)nc2n1-c1cccc(C(C)(C)O)n1 |  |  | 99.8% and 97.8% and 103% | 92% and 80.4% and 93.1% | 96.9% and 51.6% and 61.3% | 92.4% and 41% and 41.4% | 67.7% and 34.9% and 37% | 33.8% and 38.8% and 32.9% |  |  |  | 
7 | CC(=O)O[C@H]1C(=O)[C@@]2(C)[C@H]([C@H](OC(=O)c3ccccc3)[C@]3(O)C[C@H](OC(=O)[C@H](O)[C@@H](NC(=O)c4ccccc4)c4ccccc4)C(C)=C1C3(C)C)[C@]1(OC(C)=O)CO[C@@H]1C[C@@H]2O | 78.3 nM and < 31.6 nM |  | 76.3% and 38.3% and 43.2% | 42.8% and 28.9% and 29% | 10.7% and 26.6% and 31.2% |  |  |  |  |  |  | 
8 | CC(C)(O)C1CCC(Nc2ccc3ncc(-c4cccc(C(F)(F)F)c4)n3n2)CC1 (stereo unspecified) | > 10000 nM and 1160 nM and 1540 nM |  | 106% and 99.4% and 95.7% | 98.4% and 97.7% and 91.8% | 103% and 93.5% and 85.9% | 97.1% and 55.2% and 69.5% | 108% and 10.6% and 16.7% | 84% and 18.1% and 15.5% |  |  |  | 
9 | CC1COCCN1c1cc(C2(O)CC3CCC(C2)O3)c2cnn(-c3ccn[nH]3)c2n1 (stereo unspecified) | 226 nM and 195 nM and 173 nM |  | 68.2% and 80.2% and 69% | 66.9% and 48.7% and 53.4% | 39.5% and 49.8% and 44.3% | 32.1% and 33.8% and 33.2% | 21.9% and 25.7% and 22.9% | 12.9% and 16.6% and 12.2% |  |  |  | 
10 | CCCS(=O)(=O)Nc1ccc(F)c(C(=O)c2c[nH]c3ncc(-c4ccc(Cl)cc4)cc23)c1F |  |  | 105% and 100% and 95.2% | 81.5% and 87% and 92.4% | 51.8% and 93% and 109% | 43% and 88.8% and 110% | 40% and 64.2% and 82.7% | 34.2% and 30.7% and 36.3% |  |  |  | 
11 | CC[C@@]1(O)C(=O)OCc2c1cc1n(c2=O)Cc2cc3c(CN(C)C)c(O)ccc3nc2-1 | > 316 nM and 93.3 nM |  | 78.6% and 59.5% and 63.7% |  | 52.4% and 46.4% and 50.7% |  |  |  | 102% and 100% and 105% | 102% and 88.7% and 106% | 87.2% and 87.7% and 96.7% | 57.2% and 51.5% and 58.3%
12 | CCc1c2c(nc3ccc(O)cc13)-c1cc3c(c(=O)n1C2)COC(=O)[C@]3(O)CC | 10.5 nM and 6.82 nM and 6.81 nM |  | 34.9% and 28.8% and 33.9% |  | 6.84% and 7.73% and 9.09% |  |  |  | 62% and 58.6% and 64.2% | 58% and 49.7% and 56.6% | 51.5% and 50.8% and 46.9% | 19.2% and 15.7% and 20.2%
13 | CN(C)c1ccc(Nc2c3ccc(NC(=O)CCN4CCCC4)cc3nc3cc(NC(=O)CCN4CCCC4)ccc23)cc1 |  | > 10000 nM | 102% [middle of 12 runs] | 105% [middle of 12 runs] | 104% [middle of 12 runs] | 105% [middle of 12 runs] | 95.9% [middle of 12 runs] | 67% [middle of 12 runs] |  |  |  | 
